Values after ≈ are worked out from the molar mass of the structure shown.
Key:
Acute toxicity = details: mouse, in vivo; oral, groups of ten ddY male mice; read-out: 50% Lethal Doses (LD50)
Description: Groups of ten ddY strain male mice (body weights: 20±1 grams) of the test compound were orally administered to determine the LD50. There was […] in which many mice died when the dose was 2000 mg/kg or less.

Escherichia coli KC-14 [1] = test: Mouse intraperitoneal infection, survival after one week; format: in vivo, ddY strain mice; details: KC14, po; Escherichia coli KC-14, 5 × 10^4 per mouse; one dose per os 2 h after infection
Description: (§1) ddY--Strain mice (male; body weight 20±1 grams) of SPF were innoculated with the bacteria set forth in Table 2 by administration of a supension of the bacterial in 4% mucin solution into the abdominal cavity. A compound of the invention was given one time per os two hours after the infection, and, from the survival rate after one week. 50% effective doses (ED50) were calculated by the Behrens-Karber method.

[2] = system: Pseudomonas aeruginosa E-2; test: as above; format: in vivo, ddY strain mice; details: E2, po; Pseudomonas aeruginosa E-2, 2 × 10^5 per mouse; one dose per os 2 h after infection; Behrens-Karber
Description: as §1

[3] = system: Streptococcus pyogenes S-23; test: Minimum growth inhibiting concentration, Japan Chemotherapeutic Society method; format: cell-based; details: S23; Streptococcus pyogenes S-23, Gram +; 5% horse blood added agar medium; read-out: Minimum Growth Inhibiting Concn
Description: (§2) The Antibacterial activity of the compounds of Examples 14, 13, 22b, 21 and 15 was determined in accordance with the method of Japan Chemotherapeutic Society (cf. Nippon Kagaku Ryoho Gakkai Shi, volume 29, number 1, pages 76 to 79, 1981) and the results are reported in Table 1, which follows. | *5% Horse blood added agar medium for sensitivity measurement being used.

[4] = system: Bacillus subtilis ATCC 6633; test: as above; format: cell-based; details: ATCC6633; Bacillus subtilis ATCC 6633, Gram +; 5% horse blood added agar medium; read-out: Minimum Growth Inhibiting Concn
Description: as §2

[5] = system: Streptococcus pneumoniae Type I; test: as above; format: cell-based; details: Gram +, 5% horse blood added agar medium, read-out: Minimum Growth Inhibiting Concn
Description: as §2

[6] = system: Alcaligenes faecalis ATCC 8750; test: as above; format: cell-based; details: ATCC8750; Alcaligenes faecalis ATCC 8750, Gram -; read-out: Minimum Growth Inhibiting Concn
Description: (§3) The Antibacterial activity of the compounds of Examples 14, 13, 22b, 21 and 15 was determined in accordance with the method of Japan Chemotherapeutic Society (cf. Nippon Kagaku Ryoho Gakkai Shi, volume 29, number 1, pages 76 to 79, 1981) and the results are reported in Table 1, which follows.

Escherichia coli KC-14 [7] = test: as above; format: cell-based; details: KC14; Escherichia coli KC-14, Gram -; read-out: Minimum Growth Inhibiting Concn
Description: as §3

[8] = system: Pseudomonas aeruginosa E-2; test: as above; format: cell-based; details: E2; Pseudomonas aeruginosa E-2, Gram -; read-out: Minimum Growth Inhibiting Concn
Description: as §3

[9] = system: Pseudomonas maltophilia ATCC 13637; test: as above; format: cell-based; details: Stenotrophomonas maltophilia, ATCC13637; Pseudomonas maltophilia ATCC 13637, Gram -; read-out: Minimum Growth Inhibiting Concn
Description: as §3

[10] = system: Klebsiella pneumoniae K-1966; test: as above; format: cell-based; details: K1966; Klebsiella pneumoniae K-1966, Gram -; read-out: Minimum Growth Inhibiting Concn
Description: as §3

Proteus vulgaris DX-19 = test: as above; format: cell-based; details: DX19; Proteus vulgaris DX-19, Gram -; read-out: Minimum Growth Inhibiting Concn
Description: as §3

[11] = system: Listeria monocytogenes RIMD 1205020; test: as above; format: cell-based; details: RIMD1205020; Listeria monocytogenes RIMD 1205020, Gram +; read-out: Minimum Growth Inhibiting Concn
Description: as §3

[12] = system: Pseudomonas cepacia ATCC 25416; test: as above; format: cell-based; details: Burkholderia cepacia, ATCC25416; Pseudomonas cepacia ATCC 25416, Gram -; read-out: Minimum Growth Inhibiting Concn
Description: as §3

[13] = system: Staphylococcus aureus 209-PJC; test: as above; format: cell-based; details: Gram +, read-out: Minimum Growth Inhibiting Concn
Description: as §3

[14] = system: Staphylococcus aureus Smith; test: as above; format: cell-based; details: Gram +, read-out: Minimum Growth Inhibiting Concn
Description: as §3

[15] = system: Micrococcus luteus ATCC 9341; test: as above; format: cell-based; details: ATCC9341; Micrococcus luteus ATCC 9341, Gram +; read-out: Minimum Growth Inhibiting Concn
Description: as §3

[16] = system: Acinetobacter calcoacelicus 54; test: as above; format: cell-based; details: Acinetobacter calcoacelicus 54, Gram -; read-out: Minimum Growth Inhibiting Concn
Description: as §3

Proteus mirabilis 181 = test: as above; format: cell-based; details: Proteus mirabilis 181, Gram -; read-out: Minimum Growth Inhibiting Concn
Description: as §3

[17] = system: Serracia marcescens IFO 3736; test: as above; format: cell-based; details: Serracia marcescens IFO 3736, Gram -; read-out: Minimum Growth Inhibiting Concn
Description: as §3

[18] = system: Pseudomonas aeruginosa No. 12; test: as above; format: cell-based; details: Pseudomonas aeruginosa No. 12, Gram -; read-out: Minimum Growth Inhibiting Concn
Description: as §3

[19] = system: Escherichia coli NIHJ JC-2; test: as above; format: cell-based; details: NIHJJC2; Escherichia coli NIHJ JC-2, Gram -; read-out: Minimum Growth Inhibiting Concn
Description: as §3

[20] = system: Acimetobacter calcoaceticus; test: Mouse intraperitoneal infection, survival after one week; format: in vivo, ddY strain mice; details: po, 1 × 10^7 per mouse, one dose per os 2 h after infection
Description: as §1

[21] = system: Klebsiella pneumoniae K-1966; test: as above; format: in vivo, ddY strain mice; details: K1966, po; Klebsiella pneumoniae K-1966, 3 × 10^3 per mouse; one dose per os 2 h after infection
Description: as §1

Compound | LD50 (Acute toxicity) | MIC [3] | MIC [4] | MIC [5] | MIC [6] | MIC (Escherichia coli KC-14 [7]) | MIC [8] | MIC [9] | MIC [10] | MIC (Proteus vulgaris DX-19) | MIC [11] | MIC [12] | MIC [13] | MIC [14] | MIC [15] | MIC [16] | MIC (Proteus mirabilis 181) | MIC [17] | MIC [18] | MIC [19] | other results
CN1CCN(c2cc3c(cc2F)c(=O)c(C(=O)O)c2sccn23)CC1 [Example 14, 7-fluoro-8-(4-methyl-1-piperazinyl)-5-oxo-5H-thiazolo(3,2-a)-quinoline-4-carboxylic acid] | > 2000 mg/kg | 0.2 µg/mL (≈ 0.553 µM) | 0.0063 µg/mL (≈ 0.0174 µM) | 0.2 µg/mL (≈ 0.553 µM) | 0.78 µg/mL (≈ 2.16 µM) | 0.013 µg/mL (≈ 0.036 µM) | 0.39 µg/mL (≈ 1.08 µM) | 0.025 µg/mL (≈ 0.0692 µM) | 0.1 µg/mL (≈ 0.277 µM) | 0.0063 µg/mL (≈ 0.0174 µM) | 1.56 µg/mL (≈ 4.32 µM) | 0.78 µg/mL (≈ 2.16 µM) | 0.1 µg/mL (≈ 0.277 µM) | 0.05 µg/mL (≈ 0.138 µM) | 0.78 µg/mL (≈ 2.16 µM) | 0.39 µg/mL (≈ 1.08 µM) | 0.013 µg/mL (≈ 0.036 µM) | 0.39 µg/mL (≈ 1.08 µM) | 0.39 µg/mL (≈ 1.08 µM) | 0.1 µg/mL (≈ 0.277 µM) | ED50 (Escherichia coli KC-14 [1]): 1.5 mg/kg; ED50 [2]: 16 mg/kg
C=CCN1CCN(c2cc3c(cc2F)c(=O)c(C(=O)O)c2sccn23)CC1 [Example 15, 8-(4-Allyl-1-piperazinyl)-7-fluoro-5-oxo-5H-thiazolo(3,2-a)-quinoline-4-carboxylic acid] | > 2000 mg/kg | 0.1 µg/mL (≈ 0.258 µM) | 0.0063 µg/mL (≈ 0.0163 µM) | 0.39 µg/mL (≈ 1.01 µM) | 0.78 µg/mL (≈ 2.01 µM) | 0.05 µg/mL (≈ 0.129 µM) | 1.56 µg/mL (≈ 4.03 µM) | 0.0063 µg/mL (≈ 0.0163 µM) | 0.05 µg/mL (≈ 0.129 µM) | 0.05 µg/mL (≈ 0.129 µM) | 0.39 µg/mL (≈ 1.01 µM) | 1.56 µg/mL (≈ 4.03 µM) | 0.025 µg/mL (≈ 0.0645 µM) | 0.013 µg/mL (≈ 0.0336 µM) | 1.56 µg/mL (≈ 4.03 µM) | 0.39 µg/mL (≈ 1.01 µM) | 0.2 µg/mL (≈ 0.516 µM) | 0.39 µg/mL (≈ 1.01 µM) | 0.78 µg/mL (≈ 2.01 µM) | 0.2 µg/mL (≈ 0.516 µM) | ED50 (Escherichia coli KC-14 [1]): 2 mg/kg; ED50 [2]: 10.7 mg/kg; ED50 [20]: > 35 mg/kg; ED50 [21]: 3.3 mg/kg
Cc1csc2c(C(=O)O)c(=O)c3cc(F)c(N4CCNCC4)cc3n12 [Example 21, 7-fluoro-1-methyl-5-oxo-8-(1-piperazinyl)-5H-thiazolo(3,2-a)-quinoline-4-carboxylic acid] | > 2000 mg/kg | 0.1 µg/mL (≈ 0.277 µM) | 0.0063 µg/mL (≈ 0.0174 µM) | 0.2 µg/mL (≈ 0.553 µM) | 0.78 µg/mL (≈ 2.16 µM) | 0.0063 µg/mL (≈ 0.0174 µM) | 0.39 µg/mL (≈ 1.08 µM) | 0.013 µg/mL (≈ 0.036 µM) | 0.013 µg/mL (≈ 0.036 µM) | 0.0016 µg/mL (≈ 0.00443 µM) | 0.2 µg/mL (≈ 0.553 µM) | 0.2 µg/mL (≈ 0.553 µM) | 0.025 µg/mL (≈ 0.0692 µM) | 0.013 µg/mL (≈ 0.036 µM) | 0.39 µg/mL (≈ 1.08 µM) | 0.2 µg/mL (≈ 0.553 µM) | 0.05 µg/mL (≈ 0.138 µM) | 0.2 µg/mL (≈ 0.553 µM) | 0.39 µg/mL (≈ 1.08 µM) | 0.025 µg/mL (≈ 0.0692 µM) | –

— US4659734A, “Olinecarboxylic acid derivatives” (Nippon Shinyaku Co., Ltd., priority 1983, dated 1987)
